The text below walks through data of patent US10981894B2, “Melanocortin subtype-2 receptor (MC2R) antagonists and uses thereof” (Crinetics Pharmaceuticals, Inc., priority 2018, dated 2021).

This assay concerns the target hMC2 receptor (Homo sapiens, UniProt Q01718). The assay can be described thus: hMC2 membrane binding assay ([125I]ACTH (1-39) Tyr23, SPA). Conditions: crude hMC2R membranes from CRE-bla-CHO-K1 cells expressing hMC2 receptor and hMRAP; [125I]ACTH (1-39) Tyr23 0.2 nM; 1.5 hours at room temperature; read-out: MC2R binding potency. On the set-up: scale not given here. In a few lines:
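Ki comes from non-linear regression of SPA scintillation counts. Displacement of 0.2 nM [125I]ACTH(1-39) Tyr23 by compound dose series (usually 0–10,000 nM final) ran 1.5 h at room temperature. Membranes came from CHO-K1 CRE-bla cells stably expressing hMC2R plus hMRAP, bead-coupled in pH 7.4 buffer with 0.2% BSA.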

Chain of hMC2 receptor (Q01718 whole entry): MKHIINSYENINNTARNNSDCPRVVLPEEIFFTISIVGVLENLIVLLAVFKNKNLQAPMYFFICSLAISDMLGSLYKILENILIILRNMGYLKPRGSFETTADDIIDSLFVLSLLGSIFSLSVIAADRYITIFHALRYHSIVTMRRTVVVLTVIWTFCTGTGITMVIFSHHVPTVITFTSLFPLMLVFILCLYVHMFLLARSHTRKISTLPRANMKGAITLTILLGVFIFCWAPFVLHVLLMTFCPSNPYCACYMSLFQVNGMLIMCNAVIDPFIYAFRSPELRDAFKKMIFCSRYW
Chain of hMC2 receptor (Q8TCY5 whole entry partner): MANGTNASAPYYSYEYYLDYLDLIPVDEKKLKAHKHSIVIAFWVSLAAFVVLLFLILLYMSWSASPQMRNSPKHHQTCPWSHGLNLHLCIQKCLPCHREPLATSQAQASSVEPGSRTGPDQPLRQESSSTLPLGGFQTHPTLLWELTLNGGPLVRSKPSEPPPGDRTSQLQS

As to `CCOc1ccncc1-c1ccc(N2CCN(C(=O)c3ccc(C(F)(F)F)cc3Cl)C[C@H]2CC)c(C(=O)NCCN)c1` [Compound 1-35, N-(2-aminoethyl)-2-[(2R)-4-[2-chloro-4-(trifluoromethyl)benzoyl]-2-ethylpiperazin-1-yl]-5-(4-ethoxypyridin-3-yl)benzamide], the Ki is below 10 nM.

`CCOc1ncccc1-c1ccc(N2CCN(C(=O)c3ccc(C)cc3Cl)C[C@H]2CC)c(C(=O)NCCNC)c1F` [Compound 1-113, 6-[(2R)-4-(2-chloro-4-methylbenzoyl)-2-ethylpiperazin-1-yl]-3-(2-ethoxypyridin-3-yl)-2-fluoro-N-[2-(methylamino)ethyl]benzamide]: the Ki was below 10 nM.

In the case of `CCOc1ncccc1-c1ccc(N2CCN(C(=O)c3ccc(F)cc3C(F)(F)F)C[C@H]2CC)c(C(=O)NCCNC)c1F` [Compound 1-114, 3-(2-ethoxypyridin-3-yl)-6-[(2R)-2-ethyl-4-[4-fluoro-2-(trifluoromethyl)benzoyl]piperazin-1-yl]-2-fluoro-N-[2-(methylamino)ethyl]benzamide], the Ki is below 10 nM.

As for `CCOc1ncccc1-c1ccc(N2CCN(C(=O)c3cc(Cl)sc3Cl)C[C@H]2CC)c(C(=O)N[C@@H]2CCN(C)C2)n1` [Compound 1-378, 5-[(2R)-4-(2,5-dichlorothiophene-3-carbonyl)-2-ethylpiperazin-1-yl]-2′-ethoxy-N-[(3R)-1-methylpyrrolidin-3-yl]-[2,3′-bipyridine]-6-carboxamide], the Ki was below 10 nM.

For the molecule `CCOc1ncccc1-c1ccc(N2CCN(C(=O)c3ccccc3C(F)(F)F)C[C@H]2CC)c(C(=O)NCCN)c1` [Compound 1-62, N-(2-aminoethyl)-5-(2-ethoxypyridin-3-yl)-2-[(2R)-2-ethyl-4-[2-(trifluoromethyl)benzoyl]piperazin-1-yl]benzamide], the Ki was below 10 nM.

`CCOc1ccccc1-c1ccc(N2CCN(C(=O)[C@H]3CC[C@@H](C(F)(F)F)CC3)C[C@H]2CC)c(C(=O)N[C@@H]2CCN(C)C2)n1` [Compound 1-336, 6-(2-ethoxyphenyl)-3-[(2R)-2-ethyl-4-[cis-4-(trifluoromethyl)cyclohexanecarbonyl]piperazin-1-yl]-N-[(3R)-1-methylpyrrolidin-3-yl]pyridine-2-carboxamide]: the Ki is below 10 nM.

With `CCOc1ncccc1-c1ccc(N2CCN(C(=O)OC(C(C)(C)C)C(F)(F)F)C[C@H]2CC)c(C(=O)N[C@@H]2CCN(C)C2)n1` (single isomer, unassigned) [Compound 1-392, (2S*)-1,1,1-trifluoro-3,3-dimethylbutan-2-yl (3R)-4-(2′-ethoxy-6-{[(3R)-1-methylpyrrolidin-3-yl]carbamoyl}-[2,3′-bipyridin]-5-yl)-3-ethylpiperazine-1-carboxylate], the Ki was below 10 nM.

Consider `CCOc1ccccc1-c1ccc(N2CCN(C(=O)N3CCc4cc(F)cc(Cl)c43)C[C@H]2CC)c(C(=O)N[C@H]2CCN(C)C2)n1` [Compound 1-421, 3-[(2R)-4-(7-chloro-5-fluoro-2,3-dihydro-1H-indole-1-carbonyl)-2-ethylpiperazin-1-yl]-6-(2-ethoxyphenyl)-N-[(3S)-1-methylpyrrolidin-3-yl]pyridine-2-carboxamide], for which the Ki is below 10 nM.

Regarding `CCOc1ncccc1-c1ccc(N2CCN(C(=O)C3(C(F)(F)F)CC(F)(F)C3)C[C@H]2CC)c(C(=O)N[C@@H]2CCNC2)n1` [Compound 1-298, 5-[(2R)-4-[3,3-difluoro-1-(trifluoromethyl)cyclobutanecarbonyl]-2-ethylpiperazin-1-yl]-2′-ethoxy-N-[(3R)-pyrrolidin-3-yl]-[2,3′-bipyridine]-6-carboxamide], the Ki is below 10 nM.

As to `CCOc1ccc(C(=O)N2CCN(c3ccc(-c4cccnc4OCC)nc3CN)[C@H](CC)C2)c(C(F)(F)F)n1` [Compound 2-30], the Ki is below 10 nM.
